Where two headings read alike, the source gives them in different places.
Legend:
[1] = test system: peripheral blood monouclear cells (PBMC), Jurket; assay: MTT cytotoxicity assay; type: cell-based; details: at 10,000 nM
Experimental: (§1) C. MTT Cytotoxicity Assay
(§2) Cells were prepared as single cell suspension, and cell densities were adjusted according to the cell size and cell features. Cells were inoculated with 100 ul culture media into 96 well plates, and incubated in 37° C. incubator (5% CO2, saturated humidity). The seeding densities were as follows: peripheral blood monouclear cells (PBMC) 10^5 cells /well, Jurket 4×10^4 cells/well. 24 h after cell inoculation, the compounds to be tested were added and incubated with cells. 48 h after inoculation, 10 μl MTT (Sigma, USA, 5 mg/ml, diluted with PBS and stored at −20° C.) was added to each well, and incubated for another 4 h in 37° C. incubator. Then add 50 μl formazane solvent (10%SDS-5%isopropanol−0.01M HCl) and incubate overnight. Determine OD570/OD630 nm at spectrophotometer, and calculate CC50 according to the inhibition curve.

MTT cytotoxicity assay = type: cell-based; details: human, peripheral blood mononuclear cells (PBMC) and Jurkat cells; MTT
Experimental: as §1, §2

CCR1 = molecular target: T1, CCR1 (Homo sapiens, UniProt P32246); assay: effects on the activation of CCR1 receptor; details: at the concentration of 10,000 nM
T1 sequence (P32246 1-355): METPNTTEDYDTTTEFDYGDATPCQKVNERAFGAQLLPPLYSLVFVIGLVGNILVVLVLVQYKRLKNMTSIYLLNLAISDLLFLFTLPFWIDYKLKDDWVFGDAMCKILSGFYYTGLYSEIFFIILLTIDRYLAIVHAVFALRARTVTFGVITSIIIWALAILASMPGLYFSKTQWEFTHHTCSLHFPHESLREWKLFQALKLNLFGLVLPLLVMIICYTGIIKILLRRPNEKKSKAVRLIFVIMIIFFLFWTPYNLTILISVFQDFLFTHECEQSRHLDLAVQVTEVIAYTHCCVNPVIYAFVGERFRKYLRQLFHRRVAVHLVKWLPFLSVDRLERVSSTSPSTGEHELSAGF

CXCR4 = CXCR4 (Homo sapiens, UniProt P61073); assay: effects on the activation of CXCR4 receptor; details: at the concentration of 10,000 nM
Sequence of CXCR4 (P61073 whole entry, species assumed): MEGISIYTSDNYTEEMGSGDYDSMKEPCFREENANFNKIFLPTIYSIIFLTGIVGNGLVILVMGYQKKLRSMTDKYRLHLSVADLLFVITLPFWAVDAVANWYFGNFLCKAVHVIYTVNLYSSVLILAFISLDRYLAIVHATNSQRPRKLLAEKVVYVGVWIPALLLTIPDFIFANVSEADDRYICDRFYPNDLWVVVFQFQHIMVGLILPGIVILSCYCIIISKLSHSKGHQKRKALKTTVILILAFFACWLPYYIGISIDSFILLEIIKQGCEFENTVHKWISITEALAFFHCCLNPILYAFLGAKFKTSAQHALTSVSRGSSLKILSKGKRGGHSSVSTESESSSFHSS

CCR5 receptor = CCR5 receptor (Homo sapiens, UniProt P51681); assay: [35S]GTPγS binding assay; type: biochemical
Sequence of CCR5 receptor (P51681 whole entry): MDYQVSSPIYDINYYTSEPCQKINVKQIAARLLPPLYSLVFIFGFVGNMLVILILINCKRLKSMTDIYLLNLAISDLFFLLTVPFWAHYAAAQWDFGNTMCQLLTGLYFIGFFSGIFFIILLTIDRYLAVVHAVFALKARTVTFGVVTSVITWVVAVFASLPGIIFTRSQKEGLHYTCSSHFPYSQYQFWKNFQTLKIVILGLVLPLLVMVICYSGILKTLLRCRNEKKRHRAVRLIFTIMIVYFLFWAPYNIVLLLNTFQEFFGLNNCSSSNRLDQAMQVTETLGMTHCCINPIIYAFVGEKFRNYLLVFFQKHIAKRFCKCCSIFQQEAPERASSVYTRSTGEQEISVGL
Description: [^35S]GTPγS binding assay
CCR5 receptor binds to agonists and changes its conformation which enables it to interact with and activate G protein, a heterotrimer which consists of subunits α and βγ. The capability of G protein α subunit binding to GTP depends on the effect between CCR5 and the agonists, therefore, the amount of α subunit bound GTP should reflect the agonists activity on the CCR5 receptor. In the GTPγS binding assay, [^35S]GTPγS is resistant to the GTPase activity of α subunit, and thus cannot be hydrolyzed when bound to G protein, making it accurate to reflect the receptor activation. Radiolabled [^35S]GTPγS can also serve as marker for detection in place of GTP. When CCR5 is not activated, α subunit is bound to GDP, but when CCR5 is activated, α subunit binds to [^35S]GTPγS, therefore, measurement of the number of the α subunit-bound ^35S-GTPγS can reflect the CCR5 activation level.
CCR5 activation of G-protein was measured according to assays below:
Permanent cell line expressing CHO of CCR5 (available at Euroscreen S.A., Belgium) was lysed by lysis buffer (5 mM Tris HCl, pH 7.5, 5 mM EDTA and 5 mM EGTA), and centrifuged at 15,000×g for 10 min. Cell membrane was resuspended with reaction buffer (5 mM Tris HCl, pH 7.5, 5 mM MgCl2, 1 mM EGTA, 100 mM NaCl), and protein concentrations were determined using Bioford assay (Bio-rad). [^35S]GTPγS binding assay was performed in the 100 μl reaction buffer system, which contains 10 ug membrane protein, 40 uM GDP and 0.5 nM [^35S]GTPγS (1200 Ci/mmol). After adding the study compounds, the system was vortexed and placed on ice for 5 min, and then CCR5 agonist was added (10 nM RANTES or 30 nM MIP1β). After vortexing, the reaction tubes were incubated at 30° C. for 1 h. After the reaction was complete, the reaction tubes were placed on ice and diluted with PBS to terminate the reaction. After suction through the GF/C filter membrane under vacuum, the membrane bound radioactivity was measured with a scintillation counter. Basal binding was measured without presence of agonist, and non-specific binding was measured in the presence of 10 mM nonisotopical GTPγS. The binding ratio of [^35S]GTPγS was calculated according to 100×[c.p.m.sample−c.p.m. non-specific]/[c.p.m.basal−c.p.m. non-specific]. IC50 was the compound concentration at which half of the [^35S]GTPγS binding induced by 10 nM RANTES or 30 nM MIP1β was inhibited, and the value was obtained from the concentration-inhibition curve (6-7 points for concentrations of each compound).

[2] = test system: HEK 293 cells expressing human CCR5 receptors (293CCR5); assay: Chemotaxis assay; type: cell-based; details: chemotaxis caused by 10 nM RANTES, read-out: IC50 on cell chemotaxis
Experimental: The procedures were as follows:
The assay is performed with a 48 well plate (AP48, Neuroprobe Inc., USA) and 8 uM filter membrane (25×80 mm). The filter membrane was pre-immersed in rat tail collagen for at least 2 h. The filter membrane was taken out and dried on a super-clean bench, then the filter membrane was immersed in 0.1% BSA-MEM. HEK 293 cells expressing human CCR5 receptors (293CCR5) (available at Euroscreen S.A., Belgium) were digested with D.T. for 1 min, and pelleted by centrifugation at 200 g. Resuspend the cells in 0.1% BSA-MEM, count and dilute the cell suspension to 3×10^6 cells/ml. Fill each well with 26.5 μl tll of a chemokine dilution or 1% BSA MEM, place the filter membrane and cover a lid on the well, add 50 μl of the cells suspension to each well. When testing the compound antagonism, the compounds to be tested were added to the cell suspension, and pre-incubated at 37° C. for 20 min. Then place the plate in 37° C. incubator, and incubate for 6 h. Take out of the filter membrane and remove the cells in the well, fix the filter membrane in 4% polyformaldehyde solution at 4° C. overnight. The filter membrane was taken out the next day and stained with crystal violet for at least 2 h, then wash with water and allow it to dry. Scan the filter membrane, and calculate the shades with Scion Image. […]

water solubility = type: physicochemical; details: mesylate compared with II-a-a
[3] = Table I, [35S]GTPγS binding, read-out: IC50
[4] = [35S]GTPγS binding initiated by 10 nM RANTES, read-out: IC50(nM) ± S.E.

SMILES | activation or antagonism of CCR1 receptor (CCR1) | activation or antagonism of CXCR4 receptor (CXCR4) | IC50 (CCR5 receptor; [3]) [nM] | IC50 (CCR5 receptor; [4]) [nM] | IC50 (CCR5 receptor; b360, read-out: IC50) [nM] | water solubility increase (water solubility) | cytotoxicity on cells [1] | CC50 at 24 h (MTT cytotoxicity assay) [µM] | IC50 [2] [nM]
C=CCN(C(=O)OCc1ccc([N+](=O)[O-])cc1)C1CCN(CC2CN(C(=O)c3cccc4ccccc34)CC2(O)c2ccccc2)CC1 (stereo not drawn) [III-a-d, 4-nitrobenzyl 1-((1-(1-naphthoyl)-4-hydroxy-4-phenylpyrrolidin-3-yl)methyl)piperidin-4-yl(allyl)carbamate] | do not activate or antagonize | do not activate or antagonize | 26.8 ± 2 | 26.8 ± 2 | – | – | no significant cytotoxicity | ~30 | –
C=CCN(C(=O)OCc1ccc([N+](=O)[O-])cc1)C1CCN(CC2CN(C(=O)C3CCCCC3)CC2(O)c2ccccc2)CC1 (stereo not drawn) [III-a-f, 4-nitrobenzyl allyl(1-((1-(cyclohexanecarbonyl)-4-hydroxy-4-phenylpyrrolidin-3-yl)methyl)piperidin-4-yl)carbamate] | do not activate or antagonize | do not activate or antagonize | 7.3 | 7.3 ± 0.6 | – | – | no significant cytotoxicity | ~30 | –
CCN(C(=O)OCc1ccccc1)C1CCN(CC2CN(Cc3ccccc3)CC2(O)c2ccccc2)CC1 (stereo not drawn) [mesylate of II-a-a] | – | – | – | – | 342 ± 72.5 | about 10 fold | – | – | –

The next lines start with results.

activation or antagonism of CCR1 receptor (CCR1) | activation or antagonism of CXCR4 receptor (CXCR4) | IC50 (CCR5 receptor; [3]) [nM] | IC50 (CCR5 receptor; [4]) [nM] | IC50 (CCR5 receptor; b360, read-out: IC50) [nM] | water solubility increase (water solubility) | SMILES | cytotoxicity on cells [1] | CC50 at 24 h (MTT cytotoxicity assay) [µM] | IC50 [2] [nM]
do not activate or antagonize | do not activate or antagonize | 24.9 ± 8.8 | 24.9 ± 8.8 | – | – | C=CCN(C(=O)OCc1ccc([N+](=O)[O-])cc1)C1CCN(CC2CN(C(=O)c3ccccc3I)CC2(O)c2ccccc2)CC1 (stereo not drawn) [III-a-c, 4-nitrobenzyl allyl(1-((4-hydroxy-1-(2-iodobenzoyl)-4-phenylpyrrolidin-3-yl)methyl)piperidin-4-yl)carbamate] | no significant cytotoxicity | ~30 | –
do not activate or antagonize | do not activate or antagonize | 5.3 ± 0.6 | 5.3 ± 0.6 | – | – | C=CCN(C(=O)OCc1ccc([N+](=O)[O-])cc1)C1CCN(CC2CN(C(=O)C3CCCC3)CC2(O)c2ccccc2)CC1 (stereo not drawn) [III-a-e, 4-nitrobenzyl allyl(1-((1-(cyclopentanecarbonyl)-4-hydroxy-4-phenylpyrrolidin-3-yl)methyl)piperidin-4-yl)carbamate] | no significant cytotoxicity | ~30 | ~30

— US20070161634A1, “Compounds as CCR5 antagonists” (priority 2004, published 2007)
